The source made the active and inactive calls. No cut-off for these calls is given here.
How the values were obtained:
[1] = tested on: Mus musculus; assay: In vivo behavioral response evoked when a dose of 100 microg injected into mice under light ether anesthesia; No response; assay type: functional, organism-based
[2] = tested on: Mus musculus; assay: In vivo toxic dose of injected compound at a dose of 5 to 100 ug at which 50% of mice died within 1 hr of treatment; assay type: ADME, organism-based
[3] = tested on: Mus musculus; assay: In vivo toxic dose of injected compound at a dose of 10 to 100 ug at which 50% of mice died within 1 hr of treatment; assay type: ADME, organism-based

| Compound | Activity [1] | also measured |
| --- | --- | --- |
| NCC(O)c1c2c(c(O)c(SCC(N)C(=O)O)c1SCC(N)C(=O)O)NC(C(=O)O)CS2 (stereo unspecified) | inactive | – |
| NCC(O)c1cc(O)c2c(c1)SCC(C(=O)O)N2 (stereo unspecified) | – | LD50 [2]: 17.8 µg |
| NCC(O)c1cc(SCC(N)C(=O)O)c(O)c(O)c1SCC(N)C(=O)O (stereo unspecified) | inactive | – |
| NCC(O)c1cc(SCC(N)C(=O)O)c(O)c2c1SCC(C(=O)O)N2 (stereo unspecified) | inactive | – |
| NCC(O)c1ccc(O)c2c1SCC(C(=O)O)N2 (stereo unspecified) | – | LD50 [3]: 23.4 µg |
| NCC(O)c1cc(O)c(O)c(SCC(N)C(=O)O)c1 (stereo unspecified) | inactive | – |

From ChEMBL document CHEMBL1129313, “Oxidation chemistry of (-)-norepinephrine in the presence of L-cysteine” (J Med Chem, 1996)
